Test results as given in US20260365628A1, “SUBSTITUTED 3,4-DIHYDROQUINOLINONE INHIBITORS OF TSHR” (Septerna, Inc., priority 2022, published 2026).

Biological target: T1, hTSHR (Homo sapiens, UniProt P16473)
T1 construct: expressed in transfected cells
Experiment: hTSHR TR-FRET cAMP Assay (inhibition of M22-stimulated cAMP production)
Assay type: cell-based
Details: not given
Experimental: Assays were performed using Expi293F Inducible cells (Invitrogen) stably expressing hTSHR via a pcZeo TetO DNA plasmid. Cell lines were maintained in suspension in Expi293 Expression Medium (ThermoFisher Scientific) supplemented with 10 µg/mL Blasticidin and 10 μg/mL Zeocin and incubated at 37° C., 8% CO2, with shaking. hTSHR cells were incubated overnight at 32° C., 5% C02, with shaking, but […] Doxycycline. Assay-ready aliquots were prepared by harvesting each cell type separately 24-hours post-induction. Cells were pelleted at 4° C., resuspended in Expi293 Expression media+10% DMSO, aliquoted, and kept frozen at −80° C. until ready for use.
For the assay, concentration-response curves of test and reference compounds were added to 384-well plates using an Echo 650 liquid handler (Beckman Coulter) and backfilled with DMSO to a final concentration of 0.5%. cAMP was measured using the cisbio cAMP Gs dynamic HTRF kit (PerkinElmer) according to manufacturer instructions. Aliquots of frozen hTSHR cells were quickly thawed and washed with phosphate-buffered saline (Sigma-Aldrich) to remove media and DMSO. The cells were resuspended in kit-supplied Stimulation Buffer at 0.8×10^6 cells/mL. 7.5 μL of the hTSHR cell dilution were added to each well of the assay plate and incubated with the compounds for 15 minutes in a 37 C, 0% CO2 incubator. 2.5 μL of Vehicle control or an EC80 concentration of recombinant human anti-TSHR antibody (M22, Creative Biolabs) was added to stimulate cAMP production. Cells were incubated with for 30 minutes at 37° C., 0% CO2. Following this incubation, the cells were lysed and accumulated cAMP was detected through the addition of kit-supplied lysis buffer containing d2-reagent and Eu-cryptate antibody. The HTRF signal was quantified using a BMG Clariostar plate reader optimized for HTRF assays. The HTRF ratio was determined by dividing the signal output at […] by that at 620 nm. Data were normalized to the signal produced by the EC80 concentration of either M22 or FSH (0% inhibition) and vehicle (no agonist, 100% inhibition).

T1 sequence (P16473 21-764): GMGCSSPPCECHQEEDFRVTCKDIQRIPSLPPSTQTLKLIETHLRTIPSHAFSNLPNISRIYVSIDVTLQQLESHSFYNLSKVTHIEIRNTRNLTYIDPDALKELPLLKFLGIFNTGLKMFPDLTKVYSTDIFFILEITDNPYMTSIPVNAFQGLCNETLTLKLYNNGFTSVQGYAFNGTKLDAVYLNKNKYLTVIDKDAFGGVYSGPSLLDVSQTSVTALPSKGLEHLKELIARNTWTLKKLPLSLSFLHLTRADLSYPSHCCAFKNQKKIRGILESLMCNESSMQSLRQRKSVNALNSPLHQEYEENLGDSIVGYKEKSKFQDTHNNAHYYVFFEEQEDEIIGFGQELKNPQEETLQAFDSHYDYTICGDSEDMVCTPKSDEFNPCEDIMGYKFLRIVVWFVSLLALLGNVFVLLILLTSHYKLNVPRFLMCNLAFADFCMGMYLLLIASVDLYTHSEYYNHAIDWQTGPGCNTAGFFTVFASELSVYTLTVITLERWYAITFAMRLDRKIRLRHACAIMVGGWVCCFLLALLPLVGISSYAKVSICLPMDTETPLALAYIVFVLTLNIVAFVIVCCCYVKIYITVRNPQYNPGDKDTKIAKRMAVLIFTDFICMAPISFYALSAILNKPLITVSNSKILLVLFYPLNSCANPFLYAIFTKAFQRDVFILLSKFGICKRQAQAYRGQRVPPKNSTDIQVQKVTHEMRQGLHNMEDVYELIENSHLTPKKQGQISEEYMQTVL

C[C@@H](c1cccc(-c2ccccc2)c1)n1c(=O)cnc2cc(NC(=O)NC(C)(C)C)ccc21 [Example 112, (S)-1-(1-(1-([1,1′-biphenyl]-3-yl)ethyl)-2-oxo-1,2-dihydroquinoxalin-6-yl)-3-(tert-butyl)urea] was tested, and the IC50 was 100 to 1000 nM.

Same assay, conditions: Expi293F Inducible cells stably expressing hTSHR; cAMP HTRF; stimulated with EC80 of anti-TSHR antibody M22; 15 min compound preincubation, 30 min at 37° C.; read-out: Activity (IC50 bins)

First: CC(C)(CC#N)NC(=O)Nc1ccc2c(c1)ncc(=O)n2Cc1cccc(OC(F)(F)F)c1 [Example 245, 1-(1-cyano-2-methylpropan-2-yl)-3-(2-oxo-1-(3-(trifluoromethoxy)enzyl)-1,2-dihydroquinoxalin-6-yl)urea]
Second: CC(C)(C)NC(=O)Nc1ccc2c(c1)ncc(=O)n2Cc1cccc(CCCC(F)(F)F)c1 [Example 93, 1-(tert-butyl)-3-(2-oxo-1-(3-(4,4,4-trifluoro-butyl)benzyl)-1,2-dihydro-quinoxalin-6-yl)urea]
The IC50 of the first is higher: over 1000 nM for the first, under 100 nM for the second. The second is the more potent here.

Compared with C[C@@H](c1cccc(CCOC(F)(F)F)c1)n1c(=O)cnc2cc(NC(=O)NC(C)(C)C)ccc21 [Example 110, (S)-1-(tert-butyl)-3-(2-oxo-1-(1-(3-(2-(tri-fluoromethoxy)ethyl)phenyl)ethyl)-1,2-dihydroquinoxalin-6-yl)urea], C[C@@H](c1cccc(CCOCC(C)(C)O)c1)n1c(=O)cnc2cc(NC(=O)NC(C)(C)C)ccc21 [Example 121, (S)-1-(tert-butyl)-3-(1-(1-(3-(2-(2-hydroxy-2-methylpropoxy)ethyl)phenyl)ethyl)-2-oxo-1,2-dihydroquinoxalin-6-yl)urea] is higher in IC50: 100 to 1000 nM for the first, over 1000 nM for the second.

First: C[C@H]1Oc2c(cc(F)c(NC(=O)NC(C)(C)C)c2F)N(Cc2cccc(OC(F)F)c2)C1=O [Example 335, 3-tert-butyl-1-[(2R)-4-{[3-(difluoromethoxy)phenyl]methyl}-6,8-difluoro-2-methyl-3-oxo-2H-1,4-benzoxazin-7-yl]urea]
Second: C[C@H]1Oc2c(cc(F)c(NC(=O)NC(C)(C)C)c2F)N(Cc2ccccc2)C1=O [Example 329, (R)-1-(4-benzyl-6,8-difluoro-2-methyl-3-oxo-3,4-dihydro-2H-benzo[b][1,4]oxazin-7-yl)-3-(tert-butyl)urea]
The IC50 of the first is lower: under 100 nM for the first, 100 to 1000 nM for the second. The first is the more potent here.

CC(C)(C)NC(=O)Nc1ccc2c(c1)OCC(=O)N2Cc1cccc(C(F)F)c1 [Example 71, 1-(tert-butyl)-3-(4-(3-(difluoromethyl)benzyl)-3-oxo-3,4-dihydro-2H-benzo[b][1,4]oxazin-7-yl)urea] and CC(C)Oc1cccc(CN2C(=O)COc3cc(NC(=O)NC(C)(C)C)ccc32)c1 [Example 75, 1-(tert-butyl)-3-(4-(3-isopropoxybenzyl)-3-oxo-3,4-dihydro-2H-benzo[b][1,4]oxa-zin-7-yl)urea] fall in the same range of IC50: 100 to 1000 nM for the first, 100 to 1000 nM for the second.

First: C[C@H]1Oc2cc(NC(=O)NC(C)(C)[C@H]3C[C@@H](O)C3)ccc2N(Cc2ccccc2)C1=O [Example 238]
Second: CC1Oc2cc(NC(=O)NC(C)(C)C)ccc2N(Cc2cccc(Cl)c2)C1=O (stereo in doubt) [Example 44, (S)-1-(tert-butyl)-3-(4-(3-chlorobenzyl)-2-methyl-3-oxo-3,4-dihydro-2H-benzo[b][1,4]oxazin-7-yl)urea]
The IC50 of the first is higher: over 1000 nM for the first, under 100 nM for the second.

First: C[C@H]1Oc2cc(NC(=O)NC(C)(C)C)ccc2N(Cc2cncc(C(F)(F)F)n2)C1=O [Example 169, (R)-1-(tert-butyl)-3-(2-methyl-3-oxo-4-((6-(trifluoro-methyl)pyrazin-2-yl)methyl)-3,4-dihydro-2H-benzo [b][1,4]oxazin-7-yl)urea]
Second: C[C@H]1Oc2cc(NC(=O)NC(C)(C)C)ccc2N(Cc2cccc(OC(F)(F)F)c2)C1=O [Example 159, (R)-1-(tert-butyl)-3-(2-methyl-3-oxo-4-(3-(trifluoro-methoxy)benzyl)-3,4-dihydro-2H-benzo [b][1,4]oxazin-7-yl)urea]
The IC50 of the first is higher: 100 to 1000 nM for the first, under 100 nM for the second.

First: C[C@H]1Oc2cc(NC(=O)NC(C)(C)C)c(C#N)cc2N(Cc2cc(Cl)ccc2F)C1=O [Example 373, (R)-1-(tert-butyl)-3-(4-(5-chloro-2-fluorobenzyl)-6-cyano-2-methyl-3-oxo-3,4-dihydro-2H-benzo[b][1,4]oxazin-7-yl)urea]
Second: C[C@@H]1Oc2cc(NC(=O)NC(C)(C)C)ccc2N(Cc2cc(Cl)ccc2C#N)C1=O [Example 86, (S)-1-(tert-butyl)-3-(4-(5-chloro-2-cyanobenzyl)-2-methyl-3-oxo-3,4-dihydro-2H-benzo[b][1,4]oxazin-7-yl)urea]
The IC50 of the first is lower: 100 to 1000 nM for the first, over 1000 nM for the second. The first is the more potent here.

Compared with CCC(c1ccccc1)N1C(=O)CCc2cc(NC(=O)NC(C)(C)C)ccc21 (stereo not drawn) [Example 28, 1-(tert-butyl)-3-(2-oxo-1-(1-phenylpropyl)-1,2,3,4-tetrahydroquinolin-6-yl)urea], C[C@@H](c1ccccc1)N1C(=O)N(C)Cc2cc(NC(=O)NC(C)(C)C)ccc21 [Example 45, 3-tert-butyl-1-{3-methyl-2-oxo-1-[(1S)-1-phenylethyl]-4H-quinazolin-6-yl}urea] is lower in IC50: over 1000 nM for the first, under 100 nM for the second.

C[C@@H](c1cc(Cl)ccc1Cl)n1c(=O)cnc2cc(NC(=O)NC(C)(C)C)c(C#N)cc21 [Example 363, (S)-1-(tert-butyl)-3-(7-cyano-1-(1-(2,5-dichlorophenyl)ethyl)-2-oxo-1,2-dihydroquinoxalin-6-yl) urea] and CC(C)CCc1cccc([C@H](C)n2c(=O)cnc3cc(NC(=O)NC(C)(C)C)ccc32)c1 [Example 107, (S)-1-(tert-butyl)-3-(1-(1-(3-isopentylphenyl)ethyl)-2-oxo-1,2-dihydroquinoxalin-6-yl)urea] fall in the same range of IC50: 100 to 1000 nM for the first, 100 to 1000 nM for the second.

C[C@@H](c1cccc(C(O)C(F)(F)F)n1)n1c(=O)cnc2cc(NC(=O)NC(C)(C)C)ccc21 (stereo in doubt) [Example 154, 1-(tert-butyl)-3-(2-oxo-1-((S)-1-(6-((R)-2,2,2-trifluoro-1-hydroxyethyl)pyridin-2-yl)ethyl)-1,2-dihydroquinoxalin-6-yl)urea] and CC(C)CCNC(=O)Nc1ccc2c(c1)ncc(=O)n2[C@@H](C)c1cccc(OC(F)(F)F)c1 [Example 207, (S)-1-isopentyl-3-(2-oxo-1-(1-(3-(trifluoromethoxy)phenyl)ethyl)-1,2-dihydroquinoxalin-6-yl)urea] fall in the same range of IC50: 100 to 1000 nM for the first, 100 to 1000 nM for the second.

First: C[C@H]1Oc2c(cc(C#N)c(NC(=O)NC(C)(C)C)c2F)N(Cc2cccc(C(F)F)c2)C1=O [Example 370, (R)-1-(tert-butyl)-3-(6-cyano-4-(3-(difluoromethyl)benzyl)-8-fluoro-2-methyl-3-oxo-3,4-dihydro-2H-benzo[b][1,4]oxazin-7-yl)urea]
Second: C[C@H]1Oc2cc(NC(=O)NC(C)(C)C)c(F)cc2N(Cc2ccccc2)C1=O [Example 326, (R)-1-(4-benzyl-6-fluoro-2-methyl-3-oxo-3,4-dihydro-2H-benzo[b][1,4]oxazin-7-yl)-3-(tert-butyl)urea]
The IC50 of the first is lower: under 100 nM for the first, 100 to 1000 nM for the second.

CC(C)(C)NC(=O)Nc1ccc2c(c1)oc(=O)n2Cc1ccccc1 [Example 38, 1-(3-benzyl-2-oxo-2,3-dihydrobenzo[d]oxazol-6-yl)-3-(tert-butyl)urea] and CC(C)(C)NC(=O)Nc1ccc2c(c1)nc(N)c(=O)n2Cc1ccccc1 [Example 294, 1-(3-amino-1-benzyl-2-oxo-1,2-dihydroquinoxalin-6-yl)-3-(tert-butyl)urea] cannot be ordered by IC50: over 1000 nM for the first, over 1000 nM for the second.

Compared with Cc1ccc(F)c(CN2C(=O)CCc3cc(NC(=O)NC(C)(C)C)ccc32)c1 [Example 49, 1-(tert-butyl)-3-(1-(2-fluoro-5-methylbenzyl)-2-oxo-1,2,3,4-tetrahydroquinolin-6-yl)urea], C[C@@H]1Oc2nc(NC(=O)NC(C)(C)C)ccc2N(Cc2cccc(Cl)c2)C1=O [Example 286, (S)-1-(tert-butyl)-3-(1-(3-chlorobenzyl)-3-methyl-2-oxo-2,3-dihydro-1H-pyrido[2,3-b][1,4]oxazin-6-yl)urea] is higher in IC50: under 100 nM for the first, over 1000 nM for the second.

C[C@H]1Oc2cc(NC(=O)NC3(C)CCCC3)ccc2N([C@@H](C)c2cccc(C(F)(F)F)n2)C1=O [Example 322, 1-((R)-2-methyl-3-oxo-4-((S)-1-(6-(trifluoromethyl)pyridin-2-yl)ethyl)-3,4-dihydro-2H-benzo[b][1,4]oxazin-7-yl)-3-(1-methylcyclopentyl)urea] and C[C@H]1Oc2cc(NC(=O)NC3(C)CCC3)ccc2N(Cc2cccc(C(F)(F)F)n2)C1=O [Example 226, 1-[(2R)-2-methyl-3-oxo-4-{[6-(trifluoromethyl)pyridin-2-yl]methyl}-2H-1,4-benzoxazin-7-yl]-3-(1-methylcyclobutyl)urea] cannot be ordered by IC50: under 100 nM for the first, under 100 nM for the second.

In the case of C[C@@H](c1cccc(CCOc2cn[nH]c2)c1)n1c(=O)cnc2cc(NC(=O)NC(C)(C)C)ccc21 [Example 119, (S)-1-(1-(1-(3-(2-((1H-pyrazol-4-yl)oxy)ethyl)phenyl)ethyl)-2-oxo-1,2-dihydroquinoxalin-6-yl)-3-(tert-butyl)urea], the IC50 is reported as over 1000 nM.
